According to patent US6861230B1, “Antibiotic sensitivity testing” (priority 1998, dated 2005):

Tests used:
[1] = test system: E. coli 10243 (sensitive, untransformed); assay: Adenylate kinase release (cell lysis) assay with antibiotic and phage 10359, sensitive strain; format: cell-based, Escherichia coli
Protocol: For example, in one embodiment, a sample of bacterial cells is divided into first and second samples. The first sample of bacterial cells is mixed with a solution containing ADP and a detergent in the presence of magnesium ions. This extracts the adenylate kinase from all the cells present in the sample, thus allowing the ATP generating reaction to occur. The reaction is allowed to proceed for the required time e.g. 5 minutes, after which bioluminescence reagent is added and the resulting light measured in a luminometer. An assay performed in this way determines the total amount of adenylate kinase in a sample, be it extracellular or intracellular.
The second sample is subjected to a similar assay but in the absence of detergent so that only extracellular adenylate kinase is measured. […]

[2] = test system: E. coli 10243 carrying plasmid encoding ampicillin resistance (pUC18); assay: Adenylate kinase release (cell lysis) assay with antibiotic and phage 10359, ampicillin-resistant strain; format: cell-based, Escherichia coli; settings: log phase, 10^5 phage 10359 at T0, 50 μg/ml ampicillin at T5
Protocol: A plasmid encoding ampicillin resistance (pUC18) was introduced into a pure culture of E. coli 10243 in order to induce resistance without altering phage host specificity.
Log phase cultures of both resistant and sensitive strains of E. coli 10243 were infected with 10^5 phage 10359 at T0 and 50 μg/ml ampicillin at T5.

Structure (SMILES)	Cell lysis due to ampicillin (adenylate kinase release) ([1]; sensitive strain, log phase, 10^5 phage 10359 at T0, 50 μg/ml ampicillin at T5, time in min)	Effect of the antibiotic on the resistant strain (adenylate kinase release) [2]	Degree of phage mediated lysis in cultures containing the antibiotic ([1]; phage 10359 plus chloramphenicol 34 μg/ml versus phage only, 80 min)	Cell lysis with both bacteriophage and chloramphenicol compared with chloramphenicol alone ([1]; phage 10359 plus chloramphenicol 34 μg/ml, 80 min)
CC1(C)S[C@@H]2[C@H](NC(=O)[C@H](N)c3ccccc3)C(=O)N2[C@H]1C(=O)O [ampicillin]	evident at T10 and significant at T20	unaffected by the antibiotic		
O=C(N[C@H](CO)[C@H](O)c1ccc([N+](=O)[O-])cc1)C(Cl)Cl [chloramphenicol]			considerably less	Greater cell lysis
